The text below walks through data of patent EP4796125A1, “TREATMENT OF PATIENT WITH NEGATIVE P53 GENE MUTATION, POSITIVE KRAS GENE MUTATION AND POSITIVE BRCA MUTATION” (Ascentawits Pharmaceuticals, Ltd., priority 2023, dated 2025).

Peptide text beside a SMILES is read from it. * marks the point of attachment. Cbz = O=C(OCc1ccccc1)*

In test [1] the test system is RAD51 protein in H460 cells. In words: WB detection of RAD51 protein (level, degradation with MG-132, half-life with Cycloheximide). The format is cell-based. Particulars: 0.1 nM AST-3424, 5 µM Nutlin-3, then 5 µM MG-132 for 6 hours (Figure 21). The protocol:
In the first experiment, the second experiment and the third experiment about the effect of the combination of AST-3424 and Nutlin-3 on Ser15-p53, Ser20-p53, Total p53, MDM2, and p21 proteins in H460 cells in Example 21, the applicant also performed WB detection of RAD51 protein.
• 1) H460 cell suspension was added to a 24-well plate, with a cell density of 100000 cells/well and 995 µL of medium per well. • 2) The cells were cultured overnight in a 37°C, 5% CO2 incubator. • 3) Compound Treatment
Monotherapy: 24 hours after cell plating, 5 µL of test compounds at different concentrations was added: 1% DMSO, 0.1 nM AST-3424, and 5 µM Nutlin-3. The plate was gently shaken to ensure even mixing, and then placed in a 37°C, 5% CO2 incubator. After culturing for another 24 hours, the cells were collected.
Combination therapy: 24 hours after cell plating, • Adding 0.1 nM AST-3424 for pre-treatment for 2 hours, and then adding 5 µM Nutlin-3 for co-treatment for 22 hours; • Adding 1% DMSO and 5 µM MG-132 for co-treatment for 24 hours; • Adding 0.1 nM AST-3424 and 5 µM MG-132 for co-treatment for 24 hours; • Adding 5 µM Nutlin-3 and 5 µM MG-132 for co-treatment for 24 hours; • Adding 0.1 nM AST-3424 for pre-treatment for 2 hours, and then adding 5 µM Nutlin-3 for treatment for 16 hours, and then adding 5 µM MG-132 for co-treatment for 6 hours. […]

In test [2] the test system is H460 cells. Briefly: Cell cycle G2/M arrest, PI staining and flow cytometry. The class given is cell-based. The conditions noted are these: 0.1 nM AST-3424, 5 µM Nutlin-3, 24 hours, combination: AST-3424 added first (Figure 9). The protocol:
(§1) • 1) H460/HPAF-II cell suspensions were added to a 24-well plate, with a cell density of 100000 cells/well and 995 µL of medium per well. • 2) The cells were cultured overnight in a 37°C, 5% CO2 incubator. • 3) Compound Treatment
(§2) 24 hours after cell plating, according to the protocol, the experimental groups for each cell line were as follows: Monotherapy: 24 hours after cell plating, 5 µL of test compounds at different concentrations was added: 1% DMSO, 5 µM Nutlin-3, and 0.1 nM AST-3424. The plate was gently shaken to ensure even mixing, and then placed in a 37°C, 5% CO2 incubator.
(§3) • Cells were pretreated with AST-3424 for 2 hours, and then co-treatment with Nutlin-3 for 24 hours; • cells were pretreated with Nutlin-3 for 2 hours, and then co-treatment with AS -3424 for 24 hours; and • cells were co-treated with AST-3424 and Nutlin-3 for 24 hours. • 4) The cells were digested, centrifuged at 1000 g at 4°C, washed once with pre-cooled PBS, centrifuged at 1000 g at 4°C, and fixed with 1 mL of pre-cooled 70% ethanol at - 20°C overnight. • 5) The cells were centrifuged at 3000 g at 4°C, washed once with pre-cooled PBS (phosphate buffer), and centrifuged at 3000g at 4°C. PI staining solution was prepared. The cells were stained at 37°Cfor 30 minutes (protected from light), and stored in an ice bath (protected from light). The cells were detected using a flow cytometer on the same day, and the proportions of cells in different cell cycle phases was analyzed using FlowJo.
The remaining operations were similar to those of the above experiment, and the compound treatment was as follows: […]

Test [3] relates to HPAF-II cells. The test is described as above. The class given is cell-based, human. Particulars: HPAF-II cells with p53 pathogenic mutations; 0.1 nM AST-3424, 5 µM Nutlin-3 (Figure 9). The procedure:
as §1, §2
as §3, with “The cells were stained at 37°Cfor 30 minutes (protected from light), and stored in an ice bath (protected from light).” left out

The test system of test [4] is H460 cells. Briefly: In vitro proliferation inhibition experiment (CTG, 72 hours), Example 20. The class given is cell-based. The procedure:
(§4) • 1) H460 and HPAF-II cell suspensions were added to a 96-well plate (100 µL per well), with cell densities of 2000 cells/well and 20000 cells/well, respectively. • 2) The cells were cultured overnight in a 37°C, 5% CO2 incubator. • 3) Compound Treatment
(§5) Combination therapy: 24 hours after cell plating, each well was supplemented with 99 µL of growth medium. Then, 0.5 µL of Nutlin-3 or RITA was added to each well. The plate was gently shaken to ensure even mixing, and then placed in an incubator for 2 hours. Then, 0.5 µL of test compounds at different concentrations was added. The plate was gently shaken to ensure even mixing, and then placed in a 37°C, 5% CO2 incubator.
(§6) Monotherapy: 24 hours after cell plating, each well was supplemented with 99.5 µL of growth medium. Then, 0.5 µL of test compounds at different concentrations was added. The plate was gently shaken to ensure even mixing, and then placed in a 37°C, 5% CO2 incubator. • 4) The cell plate was placed in the incubator for 72 hours. • 5) The cell plate to be tested was placed at room temperature and equilibrated for 30 minutes, and 100 µL of medium was discarded from each well. • 6) 25 µL of CTG reagent was added to each well, placed on a fast shaker to shake for 2 minutes, and placed at room temperature for 30 minutes (protected from light). • 7) The chemiluminescence signal value was read using a multifunctional microplate reader with a reading time of 1000 ms, and the corresponding inhibition rate data were calculated.

Test [5] deals with HPAF-II cells. The test is described as above. The class given is cell-based, human. The conditions noted are these: Table 14, HPAF-II. The protocol:
as §4, §5, §6

Test [6] relates to Ser15-p53, Ser20-p53, Total p53, MDM2, and p21 proteins in H460 cells. In words: WB detection of p53 protein pathway (Ser15-p53, Ser20-p53, Total p53, MDM2, p21). The format is cell-based. Particulars: second experiment: 0.1, 0.3, 1 nM AST-3424 ± 5 µM Nutlin-3, 24 hours, AST-3424 dose-dependent (Figure 16).
Experimental: • 1) H460 cell suspension was added to a 24-well plate, with a cell density of 80000 cells/well and 995 µL of medium per well. • 2) The cells were cultured overnight in a 37°C, 5% CO2 incubator. • 3) Compound Treatment
24 hours after cell plating, according to the protocol, the experimental groups for each cell line were as follows: • Monotherapy: 24 hours after cell plating, 5 µL of test compounds at different concentrations was added: 0.5% DMSO, 0.1 nM AST-3424, and 5 µM Nutlin-3. The plate was gently shaken to ensure even mixing, and then placed in a 37°C, 5% CO2 incubator. • Combination therapy: 24 hours after cell plating, 5 µL of test compounds at different concentrations was added. After pre-treatment with 5 µM Nutlin-3 for 2 hours, 0.1 nM AST-3424 was added. The plate was gently shaken to ensure even mixing, and then placed in a 37°C, 5% CO2 incubator.
4) Cell protein lysates were collected for WB detection.
• Adding 0.1 nM AST-3424 for pre-treatment for 2 hours, and then adding 5 µM Nutlin-3 for co-treatment for 22 hours; • Adding 0.3 nM AST-3424 for pre-treatment for 2 hours, and then adding 5 µM Nutlin-3 for co-treatment for 22 hours; • Adding 1 nM AST-3424 for pre-treatment for 2 hours, and then adding 5 µM Nutlin-3 for co-treatment for 22 hours. […]
The test system of test [7] is Total P53, MDM2, P21, AKR1C3 proteins in H460 cells. Briefly: WB detection ± Nutlin-3 in H460 and H460 P53 KO cells. The format is cell-based. Particulars: wild-type H460 cells; 5 µM Nutlin-3, 24h; compared with the H460 wild-type DMSO group (Figures 33, 34).
Experimental: • 1) H460 and H460 P53 KO cell suspensions were added to 24-well plates, with a cell density of 100000 cells/well and 995 µL of medium per well. • 2) The cells were cultured overnight in a 37°C, 5% CO2 incubator. • 3) Compound Treatment
24 hours after cell plating, according to the protocol, the experimental groups for each cell line were as follows: H460 WT non-treatment group, H460 P53 KO # 1 non-treatment group, H460 P53 KO # 7 non-treatment group, H460 P53 KO # 8 non-treatment group, H460 P53 KO # 12 non-treatment group, H460 WT 0.1% DMSO treatment group, H460 WT 5 µM Nutlin-3 treatment group, H460 P53 KO # 1 5 µM Nutlin-3 treatment group, H460 P53 KO # 7 5 µM Nutlin-3 treatment group, H460 P53 KO # 8 5 µM Nutlin-3 treatment group, and H460 P53 KO # 12 5 µM Nutlin-3 treatment group.
Monotherapy: 24 hours after cell plating, 5 µL of test compounds at different concentrations was added. […]
• 1) The cell plates were taken out and the medium supernatant was discarded. […] The cells were scraped off with a cell scraper, lysed on ice for 30 min, and centrifuged at 14000 rpm at 4°C for 10 min. • 2) Protein quantification was performed using the BCA assay. […] After the incubation, the membranes were washed three times with TBST (10 min per wash).The ECL luminescence solutions A and B (SuperSignal West Femto Maximum Sensitivity) were mixed and added to the membranes blotting dry. […]

For the compound `CC(C)C[C@@H](C=O)NC(=O)[C@H](CC(C)C)NC(=O)[C@H](CC(C)C)NC(=O)OCc1ccccc1` [MG-132] (Cbz-Leu-Leu-Leu-aldehyde), the “RAD51 protein level after addition of MG-132” value in test [1] is “reverses the downregulation of RAD51 protein”.
In the case of `COc1ccc(C2=N[C@@H](c3ccc(Cl)cc3)[C@@H](c3ccc(Cl)cc3)N2C(=O)N2CCNC(=O)C2)c(OC(C)C)c1` [Nutlin-3], the “cell cycle (G0/G1, S, G2/M phases)” value was “does not significantly alter the cell cycle” in the test on H460 cells [2] and “has no effect” with HPAF-II cells [3]. Further, the “Inhibition rate result / %” value in the test on H460 cells [4] (Table 12, H460, group 1: AST 0.5 nM, Nutlin-3 0.25 µM, AST + Nutlin-3 0.5+0.25) amounted to 11.8%; with H460 cells [4] (Table 12, H460, group 2: AST 0.5 nM, Nutlin-3 0.5 µM, AST + Nutlin-3 0.5+0.5), 17.27%; with H460 cells [4] (Table 12, H460, group 3: AST 0.5 nM, Nutlin-3 1 µM, AST + Nutlin-3 0.5+1), 18.3%; in the test with H460 cells [4] (Table 12, H460, group 4: AST 1.5 nM, Nutlin-3 0.25 µM, AST + Nutlin-3 1.5+0.25) it was 11.8%; with H460 cells [4] (Table 12, H460, group 5: AST 1.5 nM, Nutlin-3 0.5 µM, AST + Nutlin-3 1.5+0.5) it was 17.27%; in the test with H460 cells [4] (Table 12, H460, group 6: AST 1.5 nM, Nutlin-3 1 µM, AST + Nutlin-3 1.5+1) it was 18.3%. Moreover, the “Inhibition rate result / %” value in the test on HPAF-II cells [5] (group 1: AST 20 nM, Nutlin-3 7.5 µM, AST + Nutlin-3 20+7.5) was 8.54%; in the test with HPAF-II cells [5] (group 2: AST 20 nM, Nutlin-3 10 µM, AST + Nutlin-3 20+10) it was 52.46%; in the test with HPAF-II cells [5] (group 3: AST 20 nM, Nutlin-3 15 µM, AST + Nutlin-3 20+15) it was 73.93%; with HPAF-II cells [5] (group 4: AST 60 nM, Nutlin-3 7.5 µM, AST + Nutlin-3 60+7.5) it was 8.54%; in the test with HPAF-II cells [5] (group 5: AST 60 nM, Nutlin-3 10 µM, AST + Nutlin-3 60+10) it was 52.46%; in the test with HPAF-II cells [5] (group 6: AST 60 nM, Nutlin-3 15 µM, AST + Nutlin-3 60+15), 73.93%. Also, the “phosphorylation of p53 (Ser15-p53 and Ser20-p53), protein expression of total-p53, expression of MDM2 and p21” value in test [6] is recorded as “upregulates”. In addition, the “expressions of MDM2, P53, P21, and AKR1C3 proteins” value in test [7] was “all upregulated”.
